The numbers were not newly measured in US12364698B2 (Janssen Pharmaceutica NV, priority 2015, dated 2025), which cites them from elsewhere.

The conditions of the data set: at a pH of about 7.

Regarding `C=CC(=O)N1CCC[C@@H](n2nc(-c3ccc(Oc4ccccc4)cc3)c3c(N)ncnc32)C1` [Ibrutinib, 1-[(3R)-3-[4-amino-3-(4-phenoxyphenyl)-1H-pyrazolo[3,4 d]pyrimidin-1-yl]-1-piperidinyl]-2-propen-1-one], the partition coefficient entry is on record as “about 4”.
